Experiments:
Format in all cases: cell-based
Settings in all cases: 7 days, CTG
[1] = test system: KRAS G13D mutant human colorectal adenocarcinoma epithelial cells DLD-1; test: 3D cell proliferation inhibition assay, DLD-1
Description: (§1) Inhibition of 3D cell proliferation by the compounds was investigated on KRAS G12C mutant human non-small cell lung cancer cells NCI-H358 (ATCC or Stem Cell Bank, Chinese Academy of Sciences), KRAS G12D mutant human metastatic pancreatic adenocarcinoma cells AsPC-1 (ATCC), KRAS G12V mutant human lung adenocarcinoma cells NCI-H441 (ATCC), and KRAS G13D mutant human colorectal adenocarcinoma epithelial cells DLD-1 (ATCC). The specific procedures were as follows:
(§2) 200 nL of compound solution diluted in a gradient was added to corresponding microwells of a 384-well low-adsorption microwell plate (Corning, 3657) using an Echo sonic pipetting system (Labcyte, Echo 550), so that the final concentration of the test compound in the reaction system was in a range of 20000 nM-0.008 nM. Then 40 μL of cells at a certain density were added to the corresponding microplate. In addition to test wells for the test compounds, both a DMSO control well and a medium control well were set, with the DMSO control well containing DMSO and cells and the medium well containing only medium. After sample loading, the plate cover was applied, and the 384-well low-adsorption microplate was incubated in an incubator at 37° C. with 5% carbon dioxide for 7 days. After 7 days, the microplate was taken out, and 40 μL of CTG reagent (Promega, G9683) was added to each well. The plate was incubated at room temperature for 30 min and read on a microplate reader EnVision using the chemiluminescence program. The inhibition rates of the compounds at each concentration were calculated by the formula for the percentage inhibition of cell proliferation: inhibition rate %=(mean value of DMSO control group−single concentration reading value of compound)/(mean value of DMSO control group−mean value of medium control group)×100, and then nonlinear curve fitting was performed by GraphPad Prism 8 in the logarithmic concentration-inhibition rate to obtain the IC50 values of the compounds.

[2] = test system: KRAS G12D mutant human metastatic pancreatic adenocarcinoma cells AsPC-1; test: 3D cell proliferation inhibition assay, AsPC-1
Description: as §1, §2

[3] = test system: KRAS G12V mutant human lung adenocarcinoma cells NCI-H441; test: 3D cell proliferation inhibition assay, NCI-H441
Description: as §1, §2

[4] = test system: KRAS G12C mutant human non-small cell lung cancer cells NCI-H358; test: 3D cell proliferation inhibition assay, NCI-H358
Description: as §1, §2

COc1cc2nc(C)nc(N[C@H](C)c3cc(N)cc(C(F)(F)F)c3)c2cc1C1CCC(C(=O)N2CCN(CC3CCC4(CC3)CCN(C(=O)c3ccc(OC)c(N5CCC(=O)NC5=O)c3)CC4)CC2)CC1 (stereo partly drawn) [Example 20, 1-(5-(9-((4-((1R,4R)-4-(4-(((R)-1-(3-amino-5-(trifluoromethyl)phenyl)ethyl)amino)-7-methoxy-2-methylquinazolin-6-yl)cyclohexane-1-carbonyl)piperazin-1-yl)methyl)-3-azaspiro[5.5]undecane-3-carbonyl)-2-methoxyphenyl)dihydropyrimidine-2,4(1H,3H)-dione] showed an IC50 [1] of 0.015 to 0.03 µM, an IC50 [2] of 0.05 to 0.1 µM and an IC50 [3] of at most 0.015 µM. It also gave an IC50 [4] of at most 0.015 µM.

From patent US20240261417A1, “SOS1 DEGRADING AGENT AND PREPARATION METHOD THEREFOR AND APPLICATION THEREOF” (SHANGHAI LEADINGTAC PHARMACEUTICAL CO. LTD., priority 2021, published 2024)
